Experimental data taken from patent publication US20080318909A1, “Use Of Linoleic Compounds Against Heart Failure” (priority 2007, published 2008).

Legend:
[1] = tested on: SHHF rats; test: Long-term diet study in SHHF rats (fifteen to twenty-one months of age); assay type: in vivo, rat
Protocol: Experiments were performed to determine whether the amount of (18:2)4CL in vivo may be altered with diet and, if so, whether this capability may be used to influence the time course of heart failure in SHHF rats. The two diets studied were a linoleic acid-rich safflower oil diet and a diet supplemented with lard.
Lean male SHHF rats aged eight weeks and fifteen months were used in the studies. […] The progression toward heart failure in SHHF rats shares a wide variety of marked similarities to the progression toward heart failure in humans.
To study the normal timecourse of HF, male SHHF rats were placed on special diets for six months, from fifteen to twenty-one months of age. This timecourse was chosen, because fifteen months is the time when SHHF rats start to progress from hypertension to HF. By twenty-one months most controls should be showing signs of overt HF.

[2] = tested on: PPARβ; test: PPAR binding in LVs of twenty month old SHHF rats on linoleic acid supplement; assay type: in vivo, rat; details: FIG. 13
Excerpt: Peroxisome Proliferator-Activated Receptors: Peroxisome proliferator-activated receptors (PPARs) are a family of nuclear transcription factors comprised of PPARα, PPARγ, and PPARβ (also called PPARδ). […] Alteration in PPAR isoform levels results in CL changes, and it is well established that the natural activator for PPARs are polyunsaturated fatty acids, such as 18:2. […] PPARβ is currently believed to be the most pharmacologically promising of the three isoforms. Linoleic acid supplementation results in an increase in PPARβ binding, FIG. 13.

[3] = tested on: fibroblasts from Barth Syndrome patients; details: fibroblasts supplemented with 18:2; cited from earlier work
[4] = tested on: TAB rats; test: SC-26196 fed in chow to TAB rats with induced heart failure; assay type: in vivo, rat
Excerpt: Δ5 Desaturase and Δ6 Desaturase: Δ6 desaturase mRNA increases with heart failure in SHHF rats (FIG. 11). The Δ5 desaturase and Δ6 desaturase inhibitor SC-26196 (Pfizer) was fed to TAB rats in which heart failure was induced three weeks after TAB. The rats were allowed to reach a pre-failure state for a week and then the drug, SC-26196, was given in the chow for two weeks. […] Use of the Δ5 desaturase and Δ6 desaturase inhibitor, SC-26196, improved the heart function of SHHF rats and caused an increase in linoleic acid and a decrease in arachidonic acid levels in the heart.
Rapid induction of HF was studied using eight week old male SHHF rats maintained on a control (Purina 5001) diet since weaning from their mothers. Rapid HF is induced by transaortic banding (TAB) accompanied by a high salt diet for four weeks (TAB/HS). Rats are used for experiments four weeks following TAB/HS treatment.

| Structure (SMILES) | left ventricular dimension ([1]; 18:2 supplementation) | systolic function ([1]; 18:2 supplementation) | survivability / survival of SHHF rats ([1]; compared to lard supplemented or standard chow diets, FIG. 7) | PPARβ binding [2] | amount of (18:2)4CL [3] | arachidonic acid levels in the heart ([4]; SHHF rats) | linoleic acid levels in the heart ([4]; SHHF rats) | survivability of SHHF rats ([4]; given in the chow) | production of arachidonic acid from linoleic acid ([4]; given in the chow for two weeks) | cardiac function (fractional shortening) ([4]; given in the chow for two weeks, FIG. 12A) | level of (18:2)4CL ([4]; given in the chow for two weeks, FIG. 12B) |
| --- | --- | --- | --- | --- | --- | --- | --- | --- | --- | --- | --- |
| CCCCC/C=C\C/C=C\CCCCCCCC(=O)O [Linoleic acid, linoleic acid] | Trends for improvement | Trends for improvement | significant increase | increase | increased | – | – | – | – | – | – |
| N#CC(CCCN1CCN(/N=C/c2cccnc2)CC1)(c1ccccc1)c1ccccc1 [SC-26196] | – | – | – | – | – | decrease | increase | improved | effectively blocked | improved | increased |
